In series [1] the test system is Lactuca sativa. Nature of the series: Phytotoxicity in naked Lactuca sativa (lettuce) assessed as change in visual quality after compound application through two-tier reduced pressure fumigation at 30 mmHg for 0.5 hr and then 760 mmHg for 1.5 hr at 23 +/- 1 degC after 2 hr. The format is organism-based. Conditions: in vivo.
The test system of series [2] is Brassica oleracea var. capitata. Nature of the series: Phytotoxicity in Brassica oleracea var. capitata (cabbage) assessed as induction of olfactory damage after compound application for 1 hr through two-tier reduced pressure fumigation at 30 mmHg for 0.5 hr and then 760 mmHg for 1.5 hr at 23 +/- 1 degC. Particulars: in vivo. The format is organism-based.
Another series relates to Pseudococcus affinis. Nature of the series: Insecticidal activity against Pseudococcus affinis. The format is functional, organism-based.
Series [3] relates to Myzus persicae. As to the kind of experiment: Insecticidal activity against Myzus persicae (green peach aphid) infested naked lettuce applied for 1 hr through two-tier reduced pressure fumigation at 30 mmHg for 0.5 hr and then 760 mmHg for 1.5 hr at 23 +/- 1 degC measured 24 hr. The class given is functional, organism-based.
The subject of series [4] is Lactuca sativa. Nature of the series: Phytotoxicity in naked Lactuca sativa (lettuce) after compound application for 1 hr through two-tier reduced pressure fumigation at 30 mmHg for 0.5 hr and then 760 mmHg for 1.5 hr at 23 +/- 1 degC. The class given is organism-based. Particulars: in vivo.
Series [5] deals with Vitis vinifera. As to the kind of experiment: (§1) Phytotoxicity in Vitis vinifera assessed as induction of visual damage after compound application for 1 hr through two-tier reduced pressure fumigation at 30 mmHg for 0.5 hr and then 760 mmHg for 1.5 hr at 23 +/- 1 degC. The format is organism-based. Particulars: in vivo.
In series [6] the test system is Vitis vinifera. The description is as §1. The class given is organism-based. Conditions: in vivo. This is another data set of the same source.
For another series, the system named is Brevicoryne brassicae. As to the kind of experiment: Insecticidal activity against Brevicoryne brassicae (cabbage aphids). The class given is functional, organism-based.
In series [7] the test system is Brassica oleracea var. italica. Nature of the series: Phytotoxicity in Brassica oleracea var. italica after compound application for 1 hr through two-tier reduced pressure fumigation at 30 mmHg for 0.5 hr and then 760 mmHg for 1.5 hr at 23 +/- 1 degC. The format is organism-based. Conditions: in vivo.
Series [8] deals with Citrus x paradisi. As to the kind of experiment: Phytotoxicity in Citrus x paradisi (grape fruit) assessed as induction of olfactory damage after compound application for 1 hr through two-tier reduced pressure fumigation at 30 mmHg for 0.5 hr and then 760 mmHg for 1.5 hr at 23 +/- 1 degC. The class given is organism-based. Conditions: in vivo.
The subject of series [9] is Lactuca sativa. Nature of the series: Phytotoxicity in naked Lactuca sativa (lettuce) assessed as induction of olfactory damage after compound application for 1 hr through two-tier reduced pressure fumigation at 30 mmHg for 0.5 hr and then 760 mmHg for 1.5 hr at 23 +/- 1 degC. The class given is organism-based. Conditions: in vivo.
For series [10], the system named is Citrus x paradisi. Nature of the series: Phytotoxicity in Citrus x paradisi (grape fruit) assessed as induction of visual damage after compound application for 1 hr through two-tier reduced pressure fumigation at 30 mmHg for 0.5 hr and then 760 mmHg for 1.5 hr at 23 +/- 1 degC. The format is organism-based. Particulars: in vivo.
In series [11] the test system is Vitis vinifera. As to the kind of experiment: (§2) Phytotoxicity in Vitis vinifera assessed as induction of olfactory damage after compound application for 1 hr through two-tier reduced pressure fumigation at 30 mmHg for 0.5 hr and then 760 mmHg for 1.5 hr at 23 +/- 1 degC. The class given is organism-based. Conditions: in vivo.
In another series the test system is Bemisia. Nature of the series: Insecticidal activity against Bemisia sp. The format is functional, organism-based.
A further series deals with Pseudococcus viburni. As to the kind of experiment: Insecticidal activity against Pseudococcus viburni. The class given is functional, organism-based.
The test system of series [12] is Frankliniella occidentalis. As to the kind of experiment: Insecticidal activity against Frankliniella occidentalis (western flower thrips). The class given is functional, organism-based.
In series [13] the test system is Malus domestica. As to the kind of experiment: Phytotoxicity in Malus x domestica (apple) assessed as induction of visual damage after compound application for 1 hr through two-tier reduced pressure fumigation at 30 mmHg for 0.5 hr and then 760 mmHg for 1.5 hr at 23 +/- 1 degC. The class given is organism-based. Particulars: in vivo.
Series [14] deals with Brassica oleracea var. italica. As to the kind of experiment: Phytotoxicity in Brassica oleracea var. italica assessed as induction of olfactory damage after compound application for 1 hr through two-tier reduced pressure fumigation at 30 mmHg for 0.5 hr and then 760 mmHg for 1.5 hr at 23 +/- 1 degC. The class given is organism-based. Particulars: in vivo.
Series [15] concerns Lactuca sativa. As to the kind of experiment: Phytotoxicity in wrapped Lactuca sativa (lettuce) assessed as induction of olfactory damage after compound application for 1 hr through two-tier reduced pressure fumigation at 30 mmHg for 0.5 hr and then 760 mmHg for 1.5 hr at 23 +/- 1 degC. The format is organism-based. Particulars: in vivo.
The test system of series [16] is Lactuca sativa. Nature of the series: Phytotoxicity in naked Lactuca sativa (lettuce) assessed as change in visual quality after compound application for 1 hr through two-tier reduced pressure fumigation at 30 mmHg for 0.5 hr and then 760 mmHg for 1.5 hr at 23 +/- 1 degC. Particulars: in vivo. The format is organism-based.
Series [17] has as its system Persea americana. As to the kind of experiment: Phytotoxicity in Persea americana (avocado) assessed as induction of olfactory damage after compound application for 1 hr through two-tier reduced pressure fumigation at 30 mmHg for 0.5 hr and then 760 mmHg for 1.5 hr at 23 +/- 1 degC. The format is organism-based. Conditions: in vivo.
A further series concerns Oryza sativa. As to the kind of experiment: Phytotoxicity in Oryza sativa (rice) assessed as induction of olfactory damage after compound application for 1 hr through two-tier reduced pressure fumigation at 30 mmHg for 0.5 hr and then 760 mmHg for 1.5 hr at 23 +/- 1 degC. The format is organism-based. Conditions: in vivo.
Series [18] has as its system Myzus persicae. Nature of the series: Insecticidal activity against Myzus persicae (green peach aphid) infested wrapped lettuce applied for 1 hr through two-tier reduced pressure fumigation at 30 mmHg for 0.5 hr and then 760 mmHg for 1.5 hr at 23 +/- 1 degC measured 24 hr. The format is functional, organism-based.
The subject of series [19] is Malus domestica. Nature of the series: Phytotoxicity in Malus x domestica (apple) assessed as induction of olfactory damage after compound application for 1 hr through two-tier reduced pressure fumigation at 30 mmHg for 0.5 hr and then 760 mmHg for 1.5 hr at 23 +/- 1 degC. The format is organism-based. Particulars: in vivo.
Series [20] concerns Brassica oleracea var. capitata. As to the kind of experiment: Phytotoxicity in Brassica oleracea var. capitata (cabbage) after compound application for 1 hr through two-tier reduced pressure fumigation at 30 mmHg for 0.5 hr and then 760 mmHg for 1.5 hr at 23 +/- 1 degC. The class given is organism-based. Conditions: in vivo.
Series [21] has as its system Lactuca sativa. Nature of the series: Phytotoxicity in naked Lactuca sativa (lettuce) assessed as residual aldehyde odor after compound application through two-tier reduced pressure fumigation at 30 mmHg for 0.5 hr and then 760 mmHg for 1.5 hr at 23 +/- 1 degC after 2 hr. The class given is organism-based. Conditions: in vivo.
The subject of series [22] is Vitis vinifera. Described as §2. Particulars: in vivo. The format is organism-based. This is another data set of the same source.
The test system of series [23] is Myzus persicae. Nature of the series: Insecticidal activity against Myzus persicae (green peach aphid) placed under third leaf of naked Iceburg lettuce heads and after compound application for 2 hr through two-tier reduced pressure fumigation at 30 mmHg for 0.5 hr and then 760 mmHg for 1.5 hr at 23 +/- 1 degC measured after 24 hr. Conditions: for LC50: Myzus persicae, read-out: LD50 (the source's name). The format is functional.

The test system of another series is Tetranychus urticae. Nature of the series: Insecticidal activity against Tetranychus urticae (two-spotted spider mite). The format is functional, organism-based.
Series [24] deals with Persea americana. As to the kind of experiment: Phytotoxicity in Persea americana (avocado) assessed as induction of visual damage after compound application for 1 hr through two-tier reduced pressure fumigation at 30 mmHg for 0.5 hr and then 760 mmHg for 1.5 hr at 23 +/- 1 degC. The class given is organism-based. Particulars: in vivo.
Another series concerns Acari. Nature of the series: Insecticidal activity mites on flower bulbs. The class given is functional.
Series [25] relates to Myzus persicae. As to the kind of experiment: Insecticidal activity Myzus persicae (green peach aphid) on flower bulbs. The format is functional.
Another series relates to Thysanoptera. Nature of the series: Insecticidal activity Thysanoptera (thrips) on flower bulbs. The format is functional.
Series [26] relates to Frankliniella occidentalis. As to the kind of experiment: Insecticidal activity against Frankliniella occidentalis (western flower thrips) larva and adults. The class given is functional.
Series [27] relates to Myzus persicae. Nature of the series: Insecticidal activity against Myzus persicae (green peach aphid) applied through atmospheric pressure fumigation at 760 mmHg for 2 hr at 23 +/- 1 degC. Conditions: read-out: LD50 (the source's name). The class given is functional.
Series [28] relates to Myzus persicae. As to the kind of experiment: Insecticidal activity against Myzus persicae (green peach aphid) applied through two-tier reduced pressure fumigation at 30 mmHg for 0.5 hr and then 760 mmHg for 1.5 hr at 23 +/- 1 degC. The class given is functional. Particulars: for LC50: Myzus persicae, read-out: LD50 (the source's name).
In series [29] the test system is Myzus persicae. As to the kind of experiment: Potentiation factor, ratio of LD50 for Myzus persicae (green peach aphid) applied through atmospheric pressure fumigation at 760 mmHg for 2 hr at 23 +/- 1 degC to LD50 for Myzus persicae (green peach aphid) applied through two-tier reduced pressure fumigation at 30 mmHg for 0.5 hr and then 760 mmHg for 1.5 hr at 23 +/- 1 degC. The class given is functional.

In series [30] the test system is Myzus persicae. Nature of the series: Insecticidal activity against Myzus persicae (green peach aphid) applied through two-tier reduced pressure fumigation at 30 mmHg for 0.5 hr and then 760 mmHg for 1.5 hr at 15 degC. The format is functional. Particulars: read-out: LD50 (the source's name).

≈ marks a conversion by molar mass, not a printed value. Calls of active or inactive are those of the source. The rule behind the calls is not given here.

As for `C/C=C(\C)C=O` [2-methyl-(E)-2-butenal], the Activity entry in the series on Lactuca sativa [1] was “Toxic”; in series [2], “Toxic”; in the series with Lactuca sativa [4], “Toxic”; in the series with Vitis vinifera [5], “Non-toxic”; with Vitis vinifera [6], “Non-toxic”; in series [7] it was “Toxic”. Moreover, the Activity result is given as “Non-toxic” in the series with Citrus x paradisi [8]; “Toxic” in the series on Lactuca sativa [9]; “Non-toxic” in the series with Citrus x paradisi [10]; “Non-toxic” in the series on Vitis vinifera [11]; “Non-toxic” in the series on Malus domestica [13]; “Toxic” in series [14]. Further, the Activity result was “Toxic” with Lactuca sativa [15]; “Toxic” in the series with Lactuca sativa [16]; “Non-toxic” with Persea americana [17]; “Toxic” in the series on Oryza sativa; “Non-toxic” in the series on Malus domestica [19]; “Toxic” in [20]. The Activity entry was “Toxic” with Lactuca sativa [21], “Non-toxic” in the series on Vitis vinifera [22] and “Non-toxic” in the series on Persea americana [24]. Besides, the result (with Pseudococcus affinis; with Myzus persicae [3]; in the series with Bemisia; in the series on Pseudococcus viburni; in series [12]; with Myzus persicae [18]) was Active. For the same molecule, the result with Brevicoryne brassicae and with Tetranychus urticae was inactive. The molecule also registered a CTP in the series with Myzus persicae [23] of 310 mg/L.hr. Moreover, the LD90 in the series on Myzus persicae [23] was found to be 123.6 mg/L. The LC50 in the series with Myzus persicae [23] is 76.6 µg/mL (≈ 911 µM).
Regarding `CBr` [BROMOMETHANE], the CTP came to 100 mg/L.hr in the series with Acari, 100 mg/L.hr in the series on Myzus persicae [25], 100 mg/L.hr with Thysanoptera and 25 mg/L.hr in series [26].
With `CCCCCCC=O` [HEPTANAL], the figures for the LC50 in the series with Myzus persicae [27] and in the series on Myzus persicae [28] were 15 µg/mL (≈ 131 µM) and 5 µg/mL (≈ 43.8 µM), respectively. Also, the Ratio with Myzus persicae [29] stood at 3.
As for `CCCC=O` [BUTANAL], the Activity result in the series with Lactuca sativa [1] and with Lactuca sativa [21] was “Toxic” throughout. For the same molecule, the result (in the series with Pseudococcus affinis; in the series on Bemisia; in the series with Pseudococcus viburni; in [12]) was Active. Besides, the LC50 with Myzus persicae [27] came to 26.1 µg/mL (≈ 362 µM); in the series with Myzus persicae [30] it was 31 µg/mL (≈ 430 µM); in the series with Myzus persicae [28], 10.8 µg/mL (≈ 150 µM); in the series with Myzus persicae [23], 130 µg/mL (≈ 1800 µM). Further, the outcome in the series with Brevicoryne brassicae and in the series on Tetranychus urticae was inactive. The CTP in the series with Myzus persicae [28] amounted to 21.6 mg/L.hr. For the same molecule, in the series on Myzus persicae [29], the Ratio is given as 2.4. The molecule also had an LD90 in the series on Myzus persicae [23] of 177.5 mg/L.

The values above are taken from ChEMBL document CHEMBL3046689, “Volatile aldehydes are promising broad-spectrum postharvest insecticides” (J Agric Food Chem, 2000).
